According to US20180250207A1, “LIQUID CONCENTRATE FOR PRESERVING COSMETICS” (SCHÜLKE & MAYR GMBH, priority 2015, published 2018):
Structures can show the parent of a compound that is named as a salt.

System: Staphylococcus aureus, Kocuria rhizophila, Enterobacter gergoviae, Escherichia coli, Klebsiella pneumoniae, Pseudomonas aeruginosa, Pseudomonas fluorescens …
Experiment: Koko test: preserving effect of preservatives in a cosmetic formulation (PEG-free emulsion for baby wipes), weekly re-inoculation and smears
Type: cell-based, bacteria, yeast, moulds
Conditions: use concentration of 1.0% by weight in the emulsion
Method: The test described below serves to assess the preserving effect of chemical preservatives in cosmetic formulations. With the help of the described method, the aim is to test the efficacy of chemical preservatives with regard to pack preservation for cosmetic formulations. For this purpose, in different experimental batches to the nonpreserved samples, the preservatives to be investigated are added in different concentrations. A continual germ loading is achieved through periodic inoculation of the experimental batches. In parallel to the inoculation, smears of the individual batches are performed in each case directly beforehand. […] To be on the safe side, negative smears are observed for a further two days and assessed again. Assessment of the preserving effect of the individual product concentrations is performed in a semi-quantitative method via the growth of the individual smears. −=growth-free ++=moderate growth +=weak growth +++=strong growth The growth is differentiated according to bacteria, yeasts and moulds (“B”=bacteria, “Y”=yeasts, “M”=moulds, “Sp”=spore-forming bacteria, “/”=the test was terminated). […] The sample is well preserved if, under the aforementioned laboratory conditions, it withstands a period of six weeks without microbial attack of the sample batches, i.e. microbial growth cannot be detected even after the sixth inoculation. […]

`CCCCCCCCN=c1ccn(CCCCCCCCCCn2ccc(=NCCCCCCCC)cc2)cc1` [Octenidine dihydrochloride] was tested, and the “Preserving effect, overall assessment in words” value was “does not have an antimicrobial effect on its own”.
